Patent US12410152B2, “Oxazole and thioazole-type cullin ring ubiquitin ligase compounds and uses thereof” (Proxygen GmbH, priority 2019, dated 2025)

System: KBM7 WT cells (global proteome)
Experiment: Quantitative expression proteomics (TMT isobaric tagging), drug vs DMSO
Type: cell-based, human
From the text: The mechanism by which the assayed molecules re-program a functional CRL4B complex based on the data shown could be that drug binding to CUL4B recruits a neo-substrate directly to the cullin backbone. Alternatively, drug binding could stabilize CUL4B function to boost time intervals where a functionally competent CUL4B complexes can be formed. Here, the word “functional” implies that the CUL4B backbone of this complex needs to be neddylated, and a CUL4B associated E2 ubiquitin-conjugating enzyme (UBE2G1) needs to be bound. FIG. 9 outlines one possible mechanism. Both predicted mechanisms of action would result in a functionally altered CRL4B complex, and thus an altered stability of drug-induced (neo-) substrates. In order to identify target proteins with a decreased abundance or, in other words, target proteins that become degraded by CRL4B after drug treatment, global proteome composition was measured using quantitative expression proteomics (TMT-labeling). In brief, KBM7 cells were drug treated for 12 hours, lysed, and subjected to isobaric tagging. Ensuing proteomics analysis quantified a total of 7,903 proteins at a minimum spectral count of 2. […] Data on essentiality are taken from Hart et al., G3, August 2017 (PMID: 28655737).
50×10^6 KBM7^WT cells per condition were collected, washed four times with ice-cold PBS, the supernatant aspirated and pellets snap-frozen in liquid N2. Each washed cell pellet was lysed separately in 40 μL of freshly prepared lysis buffer as previously described (see Mayor-Ruiz et al., Mol Cell 2019)
Offline Fractionation via RP-HPLC at high pH and 2D-RP/RP Liquid Chromatography Mass Spectrometry were performed as previously described (see Mayor-Ruiz et al., Mol Cell 2019).
Acquired raw data files were processed using the Proteome Discoverer 2.2.0 platform, utilizing the Sequest HT database search engine and Percolator validation software node (V3.04) to remove false positives with a false discovery rate (FDR) of 1% on peptide and protein level under strict conditions. Searches were performed with full tryptic digestion against the human SwissProt database v2017.06 with up to two allowed miscleavage sites. Oxidation (+15.9949 Da) of methionine was set as variable modification, whilst carbamidomethylation (+57.0214 Da) of cysteine residues and TMT 6-plex labelling of peptide N-termini and lysine residues were set as fixed modifications. Data was searched with mass tolerances of ±10 ppm and ±0.02 Da on the precursor and fragment ions, respectively. Results were filtered to include peptide spectrum matches (PSMs) with Sequest HT cross-correlation factor (Xcorr) scores of […] and high peptide confidence assigned by Percolator. MS^2 signal-to-noise values (S/N) values of TMT reporter ions were used to estimate peptide/protein abundance changes. PSMs with precursor isolation interference values of ≥ 50% and average TMT-reporter ion S/N≤10 were excluded from quantitation. Only unique peptides were used for TMT quantitation as well as for TOP3 label-free quantitation. Isotopic impurity correction and TMT channel-normalization based on total peptide amount were applied. For statistical analysis and p-value calculation, the integrated ANOVA hypothesis test was used. TMT ratios with p-values below 0.01 were considered as significant. Only proteins with >1 peptide detected and >1 unique peptide detected were considered for further analysis. For the calling of destabilized proteins, a log 2 fold change threshold (drug/DMSO) of −0.3 was applied.
Comparison of overall proteome-wide changes in KBM7 cells treated with IC020772.1 (2.5 μM), IC021313.2 (7 μM) or T6938051 (3.5 μM) for 5 h and 12h, using quantitative proteomics based on isobaric tagging.
The protein names in Table 4, Table 5 and Table 6 refer to the protein names as provided by HUGO Gene Nomenclature Committee (HGNC) database. […]

## Cc1ccc(C(=O)N2CSCC2C(=O)N=c2[nH]cc(C)s2)o1 (centres unmarked) [Compound T6938051]
KBM7 cells, 12 hours, ~10xEC50, 7,903 proteins quantified
  number of proteins significantly downregulated (log2FC < -0.3), destabilized proteins: 793
KBM7 cells, 12 hours, essentiality from Hart et al. 2017
  number of downregulated proteins known to be implicated in KBM7 proliferation (essential for KBM7 viability): 142
T6938051 vs DMSO
  number of proteins with log2FC < −0.3: T6938051: 793 proteins
T6938051 vs DMSO, essential = implicated in KBM7 proliferation
  number of essential proteins among proteins with log2FC < −0.3: log2FC < −0.3 (142 essential proteins)
Protein ABCF2 (accession Q9UG63-2), expression proteomics, drug vs DMSO, essential: false
  log2FC (T6938051/DMSO): −0.3004
